System: outpatients with major depressive disorder
Assay: STAR*D trial: treatment-emergent suicidal ideation (TESI) by QIDS-SR16 item 12 during citalopram treatment
Assay type: in vivo, human
Details: citalopram typically starting at 20 mg/day, up to 14 weeks; comparison group n=1742; 53 participants missing data excluded
Excerpt: DNA was collected from a clinically-representative cohort of 1938 outpatients with major depressive disorder enrolled in the Sequenced Treatment Alternatives to Relieve Depression (STAR*D) trial. Outpatients 18-75 years of age with a baseline 17-item Hamilton Depression Rating Scale (see Hamilton et al., J. Neurol. Neurosurg. Psychiatry, 23: 56-62 (1960); and Hamilton, Br. J. Soc. Clin. Psychol., 6(4): 278-296 (1967)) (HRSD17) score of ≧14 who met the Diagnostic and Statistical Manual of Mental Disorders (DSM)-IV criteria for non-psychotic major depressive disorder (MDD) were eligible for the trial. […]
The 16-item Quick Inventory of Depressive Symptomatology—Self-report (QIDS-SR16) was used as a measure of symptom severity (see Rush et al., Int. J. Methods Psychiatr. Res., 9: 45-59 (2000): Rush et al., Biol. Psychiatry, 54(5): 573-583 (2003); Trivedi et al., Psychol. Med., 34(1): 73-82 (2004); Rush et al., Neuropsychompharmacology, 30(2): 405-416 (2005); and Rush et al., Biol. Psychiatry, 59(6): 493-501 (2006)) and was obtained at baseline and at each bi-weekly clinic visit. […] Participants who scored “0” on this item before citalopram treatment, but who scored 1, 2, or 3 on the same item at least once while receiving citalopram were defined as TESI cases (n=120). […]

CN(C)CCCC1(c2ccc(F)cc2)OCc2cc(C#N)ccc21 (stereo not shown) [citalopram]
TESI cases (scored 0 on QIDS-SR16 item 12 before citalopram treatment, but 1, 2 or 3 at least once while receiving citalopram): 120 participants
